Measurements from patent US11992497B2 (priority 2021, dated 2024).

Key:
Assay in all cases: in vitro
Conditions in all cases: recombinant enzyme, pH 7.4
UGT1A3 = target: T1, UGT1A3 (Homo sapiens, UniProt P35503)
T1 sequence (P35503 29-534): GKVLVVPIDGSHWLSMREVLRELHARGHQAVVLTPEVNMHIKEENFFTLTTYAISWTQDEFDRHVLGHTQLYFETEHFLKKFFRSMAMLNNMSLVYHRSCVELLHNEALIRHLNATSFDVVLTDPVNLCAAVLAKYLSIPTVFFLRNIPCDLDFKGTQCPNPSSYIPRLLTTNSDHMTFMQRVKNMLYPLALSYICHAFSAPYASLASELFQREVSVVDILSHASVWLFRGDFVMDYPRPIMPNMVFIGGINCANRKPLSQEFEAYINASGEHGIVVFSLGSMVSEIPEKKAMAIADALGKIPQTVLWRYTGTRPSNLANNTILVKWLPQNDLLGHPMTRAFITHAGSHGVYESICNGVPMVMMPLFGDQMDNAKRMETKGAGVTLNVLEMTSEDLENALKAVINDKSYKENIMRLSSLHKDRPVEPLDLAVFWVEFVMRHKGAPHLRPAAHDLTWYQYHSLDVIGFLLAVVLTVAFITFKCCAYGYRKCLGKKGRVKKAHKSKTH
Description: (§1) Experimental Summary: UGT Reaction Phenotyping (7 Isoforms).
(§2) Experimental Procedure: cDNA expressed human UGT enzyme preparations (Supersomes) supplied by BD Biosciences were obtained and stored at −80° C. prior to use. The specific isoforms were chosen by the performing laboratory based on published guidelines. They are considered the clinically relevant of the UGT isoforms (E. Kasteel et al. Human variability in isoform-specific UDP-glucuronosyltransferases: markers of acute and chronic exposure, polymorphisms and uncertainty factors. Arch Toxicol. 2020; 94(8): 2637-2661)
(§3) Supersomes in 0.1 M Tris buffer pH 7.4, alamethicin (44.6 μg/mL) and test compound (final concentration of 5 μM; final DMSO concentration ≤0.1%) were pre-incubated at 37° C. prior to the addition of UDGPA (final concentration 2 mM) to initiate the reaction. Incubations were also performed using control Supersomes (no UGT enzymes present) to reveal any non-enzymatic degradation. Compounds known to be metabolized specifically by each UGT isoform were used as control compounds (7-hydroxy-4-trifluoromethylcoumarin, all but UGT1A4, or trifluoperazine for UGT1A4).
(§4) CBG or Compound 1 were incubated in duplicate for 0, 10, 20, 40 and 60 min with each isoform. The reactions were stopped by the addition of methanol containing an analytical internal standard at the time points specified in the table above. Stopped reactions were kept on ice for at least ten minutes and the samples were centrifuged to remove precipitated protein. Supernatants were analyzed by LC-MS/MS methodology developed by the performing laboratory to quantitate the parent remaining.
(§5) The change in CBG concentration were used to calculate the Half life (t1/2 in min) and the intrinsic clearance ([…]) as shown in the following table (S. C, Khojasteh et.al., Drug Metabolism and Pharmacokinetics Quick Guide, Springer, NY, 2011), Intrinsic Clearance (CIint) is a measure of the ability of hepatocytes to eliminate drug irrespective other factors such as blood flow or protein binding. The calculations were the same as those used in Example 3A.

UGT2B15 = target: T2, UGT2B15 (Homo sapiens, UniProt P54855)
T2 sequence (P54855 24-530): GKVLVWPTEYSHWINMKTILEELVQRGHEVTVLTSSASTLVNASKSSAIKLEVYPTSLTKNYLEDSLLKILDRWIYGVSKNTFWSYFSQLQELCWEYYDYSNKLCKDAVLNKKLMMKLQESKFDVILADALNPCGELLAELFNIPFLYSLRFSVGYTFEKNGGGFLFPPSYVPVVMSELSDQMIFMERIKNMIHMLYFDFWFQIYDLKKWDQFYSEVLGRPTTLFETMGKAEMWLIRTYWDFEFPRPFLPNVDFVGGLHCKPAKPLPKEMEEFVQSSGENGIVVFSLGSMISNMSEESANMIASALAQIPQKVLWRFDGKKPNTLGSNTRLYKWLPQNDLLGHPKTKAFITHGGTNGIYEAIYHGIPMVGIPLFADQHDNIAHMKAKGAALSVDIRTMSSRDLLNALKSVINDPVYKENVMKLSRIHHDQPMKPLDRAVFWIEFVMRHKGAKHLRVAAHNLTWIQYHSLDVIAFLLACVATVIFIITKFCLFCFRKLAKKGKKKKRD
Description: as §1, §2, §3, §4, §5

UGT1A6 = target: T3, UGT1A6 (Homo sapiens, UniProt P19224)
T3 sequence (P19224 27-532): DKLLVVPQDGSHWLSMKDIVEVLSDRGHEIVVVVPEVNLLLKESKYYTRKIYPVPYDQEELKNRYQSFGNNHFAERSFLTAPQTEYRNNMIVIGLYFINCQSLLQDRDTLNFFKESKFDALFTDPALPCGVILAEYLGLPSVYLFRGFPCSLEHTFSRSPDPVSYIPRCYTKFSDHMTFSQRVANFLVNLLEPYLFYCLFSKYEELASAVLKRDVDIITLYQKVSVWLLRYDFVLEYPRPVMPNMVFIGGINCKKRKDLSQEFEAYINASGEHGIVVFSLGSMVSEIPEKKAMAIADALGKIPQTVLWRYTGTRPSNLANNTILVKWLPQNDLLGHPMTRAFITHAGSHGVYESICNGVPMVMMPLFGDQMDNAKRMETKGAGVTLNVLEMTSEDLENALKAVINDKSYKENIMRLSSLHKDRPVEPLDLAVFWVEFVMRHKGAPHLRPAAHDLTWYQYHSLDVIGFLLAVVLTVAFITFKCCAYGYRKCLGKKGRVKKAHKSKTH
Description: as §1, §2, §3, §4, §5

UGT1A1 = target: T4, UGT1A1 (Homo sapiens, UniProt P22309)
T4 sequence (P22309 26-533): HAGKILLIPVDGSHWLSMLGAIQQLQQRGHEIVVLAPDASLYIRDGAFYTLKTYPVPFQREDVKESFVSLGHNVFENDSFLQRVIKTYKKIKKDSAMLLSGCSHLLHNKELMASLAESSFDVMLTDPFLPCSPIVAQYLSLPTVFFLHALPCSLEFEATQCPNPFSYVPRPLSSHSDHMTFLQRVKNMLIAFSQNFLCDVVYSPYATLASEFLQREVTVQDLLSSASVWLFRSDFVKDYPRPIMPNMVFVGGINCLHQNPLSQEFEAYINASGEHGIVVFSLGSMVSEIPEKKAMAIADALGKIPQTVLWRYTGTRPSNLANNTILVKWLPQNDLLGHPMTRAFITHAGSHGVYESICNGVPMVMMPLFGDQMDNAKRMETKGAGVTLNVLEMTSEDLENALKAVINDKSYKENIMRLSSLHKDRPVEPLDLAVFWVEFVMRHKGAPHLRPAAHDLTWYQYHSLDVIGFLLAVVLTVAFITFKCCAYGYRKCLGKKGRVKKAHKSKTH
Description: as §1, §2, §3, §4, §5

Compound | half-life at 1 µM (UGT1A3) | microsomal CLint at 1 µM (UGT1A3) | half-life at 1 µM (UGT2B15) | microsomal CLint at 1 µM (UGT2B15) | half-life at 1 µM (UGT1A6) | microsomal CLint at 1 µM (UGT1A6) | half-life at 1 µM (UGT1A1) | microsomal CLint at 1 µM (UGT1A1)
O=c1cc(C(F)(F)F)c2ccc(O)cc2o1 [7-OH4trifluoromethylcoumarin, 7-hydroxy-4-trifluoromethylcoumarin] | 51.8 min | 26.8 µL/min/mg | 24.9 min | 55.8 µL/min/mg | 6.41 min | 216 µL/min/mg | 33.1 min | 41.8 µL/min/mg
CCCCCc1cc(O)c(C/C=C(\C)CCC=C(C)C)c(OC)c1 [Compound 1, (E)-2-(3,7-dimethylocta-2,6-dien-1-yl)-3-methoxy-5-pentylphenol] | 108 min | 12.8 µL/min/mg | 57.2 min | 24.2 µL/min/mg | > 240 min | < 2.89 µL/min/mg | 103 min | 13.5 µL/min/mg
CCCCCc1cc(O)c(C/C=C(\C)CCC=C(C)C)c(O)c1 [CBG, cannabigerol] | 44.1 min | 31.4 µL/min/mg | 47.6 min | 29.1 µL/min/mg | 95 min | 14.6 µL/min/mg | 77.1 min | 18 µL/min/mg
